Bridges are numbered along the chain shown (N, C = ends). Where no end group is shown, it is not given here.
Columns and labels:
[1] = molecular target: T1, homomeric ASIC1a channels (Homo sapiens, UniProt P78348); conditions: read-out: concentration inhibiting 50% of the current produced by homomeric ASIC1a channels; cited from earlier work
T1 sequence (P78348 1-528): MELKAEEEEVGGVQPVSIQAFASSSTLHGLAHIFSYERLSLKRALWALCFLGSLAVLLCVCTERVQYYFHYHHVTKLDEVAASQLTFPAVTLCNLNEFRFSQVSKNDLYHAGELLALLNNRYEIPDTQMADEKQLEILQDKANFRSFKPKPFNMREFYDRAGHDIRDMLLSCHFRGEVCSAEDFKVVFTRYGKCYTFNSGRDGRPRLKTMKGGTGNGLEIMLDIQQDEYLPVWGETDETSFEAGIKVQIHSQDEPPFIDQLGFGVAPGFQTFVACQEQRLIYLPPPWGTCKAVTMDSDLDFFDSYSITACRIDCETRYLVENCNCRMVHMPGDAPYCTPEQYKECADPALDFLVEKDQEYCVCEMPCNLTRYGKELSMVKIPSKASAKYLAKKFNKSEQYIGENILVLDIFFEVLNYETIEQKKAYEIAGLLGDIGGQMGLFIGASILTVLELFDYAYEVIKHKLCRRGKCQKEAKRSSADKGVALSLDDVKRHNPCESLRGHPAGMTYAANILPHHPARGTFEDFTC

[2] = mice, central injection; cited from earlier work
[3] = rats, cited from earlier work
[4] = molecular target: T2, rat heteromeric ASIC1a+ASIC3 channels (Rattus norvegicus, UniProt O35240+P55926); conditions: read-out: concentration inhibiting 50% of the current produced by rat heteromeric ASIC1a+ASIC3 channels; cited from earlier work
T2 sequence (P55926 1-526): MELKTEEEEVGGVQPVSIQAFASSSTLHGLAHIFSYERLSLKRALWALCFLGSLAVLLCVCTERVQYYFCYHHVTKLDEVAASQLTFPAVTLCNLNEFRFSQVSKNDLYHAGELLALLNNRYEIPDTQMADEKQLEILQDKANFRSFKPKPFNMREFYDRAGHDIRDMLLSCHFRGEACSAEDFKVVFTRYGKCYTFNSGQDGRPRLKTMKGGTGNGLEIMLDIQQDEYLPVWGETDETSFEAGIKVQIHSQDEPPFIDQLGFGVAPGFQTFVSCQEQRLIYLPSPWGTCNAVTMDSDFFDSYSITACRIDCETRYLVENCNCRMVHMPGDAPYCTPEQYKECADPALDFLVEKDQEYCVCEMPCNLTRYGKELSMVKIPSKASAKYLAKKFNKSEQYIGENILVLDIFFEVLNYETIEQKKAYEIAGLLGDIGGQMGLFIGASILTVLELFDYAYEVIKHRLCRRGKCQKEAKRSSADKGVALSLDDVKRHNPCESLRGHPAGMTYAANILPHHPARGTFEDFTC
T2 sequence (O35240 1-533): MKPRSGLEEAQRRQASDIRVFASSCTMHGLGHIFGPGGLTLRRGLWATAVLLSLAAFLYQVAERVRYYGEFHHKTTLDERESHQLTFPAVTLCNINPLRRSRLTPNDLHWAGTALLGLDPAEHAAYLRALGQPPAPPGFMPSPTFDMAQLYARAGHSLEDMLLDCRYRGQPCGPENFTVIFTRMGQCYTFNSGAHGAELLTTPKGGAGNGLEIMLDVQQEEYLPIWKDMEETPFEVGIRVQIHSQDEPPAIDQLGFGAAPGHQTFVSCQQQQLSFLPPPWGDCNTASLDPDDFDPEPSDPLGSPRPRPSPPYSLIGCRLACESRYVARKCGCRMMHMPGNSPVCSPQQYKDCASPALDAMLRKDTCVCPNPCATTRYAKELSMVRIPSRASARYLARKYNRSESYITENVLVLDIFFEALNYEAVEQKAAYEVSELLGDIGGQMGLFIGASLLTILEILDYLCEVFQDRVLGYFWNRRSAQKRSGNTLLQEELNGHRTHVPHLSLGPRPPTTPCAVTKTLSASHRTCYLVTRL

[5] = Toxicity after intrathecal injection; format: in vivo; conditions: mice
[6] = Accelerating rotarod test (motor activity) after intrathecal injection; format: in vivo; conditions: mice, IT injection, compared with vehicle, ANOVA
Procedure: The effects of the ASICalgin-1 peptide on motor activity were evaluated by means of the accelerating rotarod test. The mice were placed on an axle rotating at four rotations per minute (rpm) which undergoes a constant acceleration of 5 rpm per minute up to 40 rpm. The latency to fall is measured, with a maximum limit of 300 s.

[7] = Toxicity after intracerebroventricular injection; format: in vivo; conditions: mice, ICV injection, even after 3 days
Procedure: The intracerebroventricular (ICV) injection of the ASICalgin-1 peptide was carried out in the third ventricle of the brain of mice (C57B16J, 7- to 11-week-old males) anesthetized with isoflurane (1.5%) using the following stereotaxic coordinates: −2.4 mm under the cortical surface, −0.5 mm in the anterior-posterior axis and +1.6 mm in the mediolateral axis relative to the bregma. The effects of an ICV injection of 5 μl of solution containing […] of ASICalgin-1 (0.34 nmol) were compared with the effects of 5 μl of saline solution vehicle (145 mM NaCl, 5 mM KCl, 2 mM CaCl2, 10 mM HEPES, pH 7.4, 0.05% bovine serum albumin) naxolone, an inhibitor of opioid receptors (especially μ-type), was injected subcutaneously at 2 mg/kg in 50 μl of 0.9% NaCl, ten minutes before the ICV injection of the ASICalgin-1 peptide.

Question: For PcTx1, which IC50 [1] is on record?
Answer: The IC50 was 1 nM.

Question: What about the analgesic effect [2] of the same substance?
Answer: The analgesic effect was “powerful analgesic effect”.

Question: With APETx2 as the substance, how does the “analgesic effect on post-operative pain” value ([3]; intra-operative application) read?
Answer: The value was “induces an analgesic effect”.

Question: And the “analgesic effect on inflammatory and acidic pain” value ([3]; peripheral (subcutaneous) injection)?
Answer: The value was “induces an analgesic effect”.

Question: And the IC50 [4]?
Answer: The IC50 was 2000 nM.

Question: With “LKCFQHGKVVTCHRDMKFCYHNTGMPFRNLKLILQGCSSSCSETENNKCCSTDRCNK (disulfide 3-19, 12-37, 41-49, 50-55) [ASICalgin-2]” as the substance, how does the “toxicity: behavior (motor, balance, apathy, paralysis, convulsion), deaths” value (“toxicity: behavior” for short) [5] read?
Answer: Its value is “induces no modification of behavior”.

Question: Which “effect on motor activity, latency to fall” value [6] does the source give for “LKCYQHGKVVTCHRDMKFCYHNTGMPFRNLKLILQGCSSSCSETENNKCCSTDRCNK (disulfide 3-19, 12-37, 41-49, 50-55) [ASICalgin-1]” here?
Answer: The value was “does not induce any significant effect”.

Question: And the “toxicity: behavior” value [5]?
Answer: The value was “induces no modification of behavior”.

Question: What about the “toxicity: behavior” value [7] of the same substance?
Answer: The value was “induces no modification of behavior”.
